What was measured:
Test in all cases: relative viability (nuclei count vs DMSO), 5 days (fraction); higher = more cells survive
[1] = compound: CNC(=O)c1cc(Oc2ccc(NC(=O)Nc3ccc(Cl)c(C(F)(F)F)c3)cc2)ccn1 [Sorafenib] + CC1(C)CCC(c2ccc(Cl)cc2)=C(CN2CCN(c3ccc(C(=O)NS(=O)(=O)c4ccc(N[C@H](CCN5CCOCC5)CSc5ccccc5)c(S(=O)(=O)C(F)(F)F)c4)cc3)CC2)C1 [Navitoclax] (partner 0.5 µM)
Summary of the method: (§1)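 The day after seeding in 1536-well plates, lung cancer cell lines were treated by pin tool with a single drug, or with a fixed anchor-drug dose together with five library-drug doses (not always all listed) in √10 steps. After 5 days, a combined fix-and-stain solution (final 0.05% Triton X-100, 1% formaldehyde, 1 ug/ml Hoechst) was added. Nuclei counted on 4× images gave relative viability as treated counts over vehicle counts, reported as the median of duplicate plates.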

[2] = compound: CNC(=O)c1cc(Oc2ccc(NC(=O)Nc3ccc(Cl)c(C(F)(F)F)c3)cc2)ccn1 [Sorafenib] + Cc1cc(Nc2cc(N3CCN(C)CC3)nc(Sc3ccc(NC(=O)C4CC4)cc3)n2)n[nH]1 [Tozasertib] (partner 0.1 µM)
Summary of the method: as §1

[3] = compound: CNC(=O)c1cc(Oc2ccc(NC(=O)Nc3ccc(Cl)c(C(F)(F)F)c3)cc2)ccn1 [Sorafenib] + Nc1nc2[nH]cc(CCc3ccc(C(=O)N[C@@H](CCC(=O)O)C(=O)O)cc3)c2c(=O)[nH]1 [Pemetrexed] (partner 0.2 µM)
Summary of the method: as §1

[4] = compound: CNC(=O)c1cc(Oc2ccc(NC(=O)Nc3ccc(Cl)c(C(F)(F)F)c3)cc2)ccn1 [Sorafenib] + Nc1ncn([C@H]2C[C@H](O)[C@@H](CO)O2)c(=O)n1 [Decitabine] (partner 2 µM)
Summary of the method: as §1

[5] = compound: CNC(=O)c1cc(Oc2ccc(NC(=O)Nc3ccc(Cl)c(C(F)(F)F)c3)cc2)ccn1 [Sorafenib] + O=C(CCCCCCC(=O)Nc1ccccc1)NO [Vorinostat] (partner 1 µM)
Summary of the method: as §1

Cell Line	relative viability ([1]; first compound 0.08 µM)	relative viability ([1]; first compound 0.253 µM)	relative viability ([1]; first compound 2.53 µM)	relative viability ([1]; first compound 8 µM)	relative viability ([2]; first compound 0.08 µM)	relative viability ([2]; first compound 0.253 µM)	relative viability ([2]; first compound 2.53 µM)	relative viability ([2]; first compound 8 µM)	relative viability ([3]; first compound 0.08 µM)	relative viability ([3]; first compound 0.253 µM)	relative viability ([3]; first compound 8 µM)	relative viability ([4]; first compound 0.08 µM)	relative viability ([4]; first compound 0.253 µM)	relative viability ([4]; first compound 2.53 µM)	relative viability ([4]; first compound 8 µM)	relative viability ([5]; first compound 0.08 µM)	relative viability ([5]; first compound 0.253 µM)	relative viability ([5]; first compound 2.53 µM)	relative viability ([5]; first compound 8 µM)	relative viability ([3]; first compound 2.53 µM)
NCI-H1734	0.858	0.721	0.721	0.492	0.266	0.224	0.249	0.212	0.431	0.415	0.374	0.479	0.445	0.484	0.431	0.936	0.708	0.752	0.631	
NCI-H1666	1.01	0.953	0.752	0.577	0.681	0.641	0.581	0.503	0.916	0.856	0.62	0.834	0.774	0.727	0.616	1.01	0.873	1.05	0.966	
SK-MES-1	1.17	1.26	1.22		0.823	0.833	0.714	0.439	0.999	0.84		0.365	0.326	0.322	0.338	1.15	0.914		0.842	0.881
EPLC-272H	1.22	1.14	1.04	0.96	0.331	0.389	0.389	0.293	0.412	0.295	0.542	0.42	0.395	0.388	0.284	0.524	0.436	0.429	0.388	0.318
LCLC-97TM1	0.356	0.373	0.323	0.313	0.191	0.232	0.195	0.188	0.154	0.168	0.226	0.235	0.224	0.165	0.252	0.68	0.674	0.65	0.576	0.118
NCI-H1395	1.35	1.08	1.1	1.05	0.748	0.729	0.8	0.634	1			0.732		0.772	0.743	0.872		1.06	0.748	0.917
HCC-44		0.92	1.03	0.909	0.884	0.688	0.858	0.773	0.652	0.607	0.61		0.862	0.886	0.866	1.03	1.05	1.09	1.16	0.599
NCI-H1975	1.01	1.1	1.18	0.853	0.873	0.704	0.643	0.162	0.3	0.285	0.209	0.431	0.383	0.365	0.353	0.788	0.787	0.72	0.436	0.294
RERF-LC-KJ	0.932	1.11	0.867	0.705	0.532	0.489	0.41	0.221	0.485	0.458	0.417	0.74	0.673	0.586	0.473	0.723	0.608	0.738	0.665	0.524
NCI-H1437	1.05	1.03	0.91	0.438	0.419	0.384	0.416	0.291	0.335	0.312	0.184	0.536	0.524	0.626	0.393	0.782	0.783	0.705	0.307	0.268
HCC-827	1.04	1.04	0.984	0.905	0.423	0.471	0.421	0.45	0.255	0.288	0.251	0.316	0.3	0.323	0.331	0.837	0.572	0.844	0.667	0.281
NCI-H2170	0.615	0.57	0.64	0.502	0.767	0.714	0.726	0.694	0.258	0.278	0.208	0.493	0.411	0.486	0.437	0.842	0.665	0.856	0.576	0.27
BEN	0.09	0.0558	0.0776	0.0641	0.519	0.423	0.536	0.482	0.839	0.657	0.674	0.746	0.726		0.461	0.567	0.621	0.685	0.593	
A-427	0.946	0.917	0.985	0.563	0.21	0.261	0.217	0.132	0.926	0.919	0.954	0.598	0.528		0.532	0.84	0.894	0.914	1.01	1.05
LC-2-ad	0.343	0.413	0.418	0.218	0.405	0.478	0.478	0.462	0.305	0.293	0.274	0.881	0.789	0.762	0.59	0.723	0.674	0.617	0.514	0.258
NCI-H23	0.996	0.768	0.806	0.705	0.362	0.286	0.276	0.219	0.764	0.609	0.421	0.269	0.292	0.302	0.26	0.635	0.384	0.678	0.547	0.716

From the supplement of paper PMC10307832
